The results in this text go back to US11053201B2, “Crystalline forms” (SYNGENTA PARTICIPATIONS AG, priority 2018, dated 2021).

Molecules are shown by their SMILES.

A short description of data set [1]: temperature cycling test of FS200 flowable concentrate for seed treatment formulations, analysed under a microscope (40×) for crystal growth. The class given is physicochemical. To be noted: for crystal growth: FS formulation. The protocol: As mentioned previously, it is crucial for the successful application of an agrochemical and/or pharmaceutical formulation that the crystalline form is stable in the particular formulation environment. Flowable concentrates for seed treatment (FS) formulations were prepared for both Form A and Form B. The only difference between the two formulations was the polymorphic form used, all of the other components were identical. The formulations were analyzed under a microscope (40×) for possible crystal growth which can have detrimental consequences such as thickening and potentially solidification of the formulation which can in turn lead to blockages in application equipment, e.g. in seed coating equipment or in spray nozzles in agricultural application machinery. Pictures were taken of the formulations at (i) start (FIGS. 13a and 14a), (ii) immediately after the temperature cycling test (FIGS. 13b and 14b) and (iii) two days at room temperature (RT) after the temperature cycling test (FIGS. 13c and 14c). The pictures are shown for the formulation comprising Form A in FIGS. 13a, 13b and 13c and the pictures for the formulations comprising Form B in FIGS. 14a, 14b and 14c. […] The recipe used is given in Table 8: The above formulations were tested for stability in a temperature cycling test as shown in FIG. 12. The formulations were then analyzed under the microscope (40×) to check for possible stability issues, in particular crystal growth and pictures were taken.

A short description of data set [2]: chemical stability of the polymorphic forms in the formulations tested. The settings on record: in the FS formulations tested.
[3] abbreviates: at start, before the temperature cycling test, microscope 40× (FIGS. 13a, 14a).
Where [4] appears, read: immediately after the temperature cycling test, microscope 40× (FIGS. 13b, 14b).
Where [5] appears, read: two days at room temperature after the temperature cycling test, microscope 40× (FIGS. 13c, 14c).

For the compound `O=C(N[C@H]1CC[C@H]1c1ccc(Cl)cc1Cl)c1cccnc1C(F)(F)F` [Form A, N-[(1S,2S)-2-(2,4-dichlorophenyl)cyclobutyl]-2-(trifluoromethyl) pyridine-3-carboxamide], the values for the crystal growth entry in data set [1] (setting [3]), in data set [1] (setting [4]) and in data set [1] (setting [5]) were “did not exhibit any crystal growth”, “clear crystal growth” and “even further crystal growth”, respectively.

Turning to `O=C(N[C@H]1CC[C@H]1c1ccc(Cl)cc1Cl)c1cccnc1C(F)(F)F` [Form B, (1S,2S) N-[2-(2,4-dichlorophenyl)cyclobutyl]-2-(trifluoromethyl)pyridine-3-carboxamide], the crystal growth entry in data set [1] (setting [3]) is given as “did not exhibit any crystal growth”; in data set [1] (setting [4]), “no such crystal growth”; in data set [1] (setting [5]) it was “no such crystal growth”. Further, the “resistance to crystal growth” value in data set [1] (when exposed to typical storage conditions) was “surprisingly resistant to crystal growth”. Moreover, in data set [2], the “chemical stability (compound degradation)” value is “no compound degradation was observed”.
